Laboratory results taken from the NIST ThermoML archive (doi:10.1016/j.jct.2017.03.034).

Experiment: molar heat capacity at constant pressure
Conditions: Liquid, Large sample (1 g) DSC

CCCCCCCC [octane]
molar heat capacity at constant pressure [J/K/mol]
Conditions	100 kPa	10130 kPa
323.15 K	263.3	260.9
328.15 K	265.7	263.18
333.15 K	267.98	265.58
338.15 K	270.38	267.75
343.15 K	272.66	270.04
348.15 K	275.18	272.32
353.15 K	277.58	274.49
358.15 K	280.09	277
363.15 K	282.6	279.17
368.15 K	285.11	281.57
373.15 K	287.86	283.97
378.15 K	290.37	286.49
383.15 K	293.45	288.88
388.15 K	–	290.94
393.15 K	–	292.88
398.15 K	–	295.97

CCCCCCCCCCCCCC [tetradecane]
molar heat capacity at constant pressure [J/K/mol]
Conditions	120 kPa	10120 kPa
323.15 K	449.55	447.76
328.15 K	452.72	451.13
333.15 K	456.09	454.51
338.15 K	459.47	457.88
343.15 K	463.04	461.25
348.15 K	466.61	464.82
353.15 K	470.38	468.2
358.15 K	474.15	471.97
363.15 K	477.72	475.54
368.15 K	481.49	478.91
373.15 K	485.26	483.07
378.15 K	489.03	486.45
383.15 K	492.8	489.82
388.15 K	496.76	493.19
393.15 K	500.14	497.16
398.15 K	504.5	500.73
403.15 K	508.27	503.71
408.15 K	512.44	508.47
413.15 K	515.81	511.64
418.15 K	519.58	515.41
423.15 K	523.35	518.78
428.15 K	527.12	522.16
433.15 K	530.89	525.93
438.15 K	535.25	529.3
443.15 K	539.81	533.47
448.15 K	543.58	537.63
453.15 K	547.95	541.6
458.15 K	554.1	545.77
463.15 K	559.65	550.33
468.15 K	–	553.9
473.15 K	–	558.07
478.15 K	–	562.83
483.15 K	–	566.79

CCCCCCCCCCCCCCCC [hexadecane]
molar heat capacity at constant pressure [J/K/mol]
Conditions	130 kPa	10090 kPa
323.15 K	513.57	512.21
328.15 K	517.19	515.83
333.15 K	520.81	519.46
338.15 K	524.66	523.31
343.15 K	528.51	526.48
348.15 K	532.82	530.1
353.15 K	536.44	534.4
358.15 K	540.74	538.48
363.15 K	544.59	542.1
368.15 K	548.67	546.4
373.15 K	553.2	550.7
378.15 K	557.27	554.55
383.15 K	561.57	558.86
388.15 K	565.65	563.16
393.15 K	569.73	567.24
398.15 K	574.03	571.31
403.15 K	578.56	575.61
408.15 K	583.09	579.92
413.15 K	586.94	584.44
418.15 K	591.46	588.97
423.15 K	595.77	593.05
428.15 K	599.62	596.45
433.15 K	603.92	600.3
438.15 K	608.67	604.6
443.15 K	613.2	609.35
448.15 K	617.28	613.66
453.15 K	622.26	617.05
458.15 K	–	621.35
463.15 K	–	625.43
468.15 K	–	630.19
473.15 K	–	634.94

CCCCCCCCCCCC [dodecane]
molar heat capacity at constant pressure [J/K/mol]
Conditions	100 kPa	10180 kPa
323.15 K	386.32	385.13
328.15 K	389.56	388.02
333.15 K	392.79	391.26
338.15 K	395.86	394.33
343.15 K	399.09	397.39
348.15 K	402.33	400.46
353.15 K	405.57	403.52
358.15 K	408.8	406.93
363.15 K	412.04	410
368.15 K	415.28	413.23
373.15 K	418.85	416.13
378.15 K	422.09	419.36
383.15 K	425.5	422.6
388.15 K	428.73	426.01
393.15 K	432.31	429.07
398.15 K	435.38	433.16
403.15 K	438.78	435.89
408.15 K	442.53	438.78
413.15 K	445.77	441.68
418.15 K	449.34	444.06
423.15 K	452.92	447.64
428.15 K	456.5	450.88
433.15 K	460.59	454.28
438.15 K	465.35	458.2
443.15 K	–	462.12
448.15 K	–	465.7
453.15 K	–	469.95

CCCCCC [hexane]
molar heat capacity at constant pressure [J/K/mol]
Conditions	323.15 K	328.15 K	333.15 K	338.15 K	343.15 K	348.15 K	353.15 K	358.15 K	363.15 K	368.15 K
140 kPa	203.63	205.7	207.85	–	–	–	–	–	–	–
10090 kPa	200.62	202.43	204.49	206.13	208.11	210.1	211.91	214.15	216.04	218.37

CCCCCCCCCC [decane]
molar heat capacity at constant pressure [J/K/mol]
Conditions	120 kPa	10170 kPa
323.15 K	326.25	322.98
328.15 K	328.24	325.68
333.15 K	330.52	328.39
338.15 K	333.22	330.95
343.15 K	336.21	333.65
348.15 K	339.06	336.35
353.15 K	341.9	339.06
358.15 K	344.46	342.05
363.15 K	346.88	344.61
368.15 K	349.73	347.31
373.15 K	352.72	350.3
378.15 K	355.56	353
383.15 K	358.55	355.7
388.15 K	361.68	358.41
393.15 K	364.81	361.4
398.15 K	367.8	364.24
403.15 K	371.21	367.09
408.15 K	–	370.07
413.15 K	–	372.78
418.15 K	–	375.77
423.15 K	–	379.32
428.15 K	–	382.6
